Here are results for 2 molecules from patent EP2907512A1, “Inhibitors of MMP-12 as antiviral Agents” (COMMISSARIAT A L'ENERGIE ATOMIQUE ET AUX ENERGIES …, priority 2014, dated 2015).

This assay concerns HeLa cells. The assay can be described thus: IFNα secretion (ELISA) and IFNα immunostaining in CVB3-infected HeLa cells pre-treated with inhibitors. It counts as cell-based. As to conditions: for IFNα secretion: cells infected with CVB3, ELISA of medium, vs DMSO control. A general note: ELISA stands for enzyme-linked immunosorbent assay.

On to `Cc1ccc(S(=O)(=O)/C=C/C#N)cc1` [Bay11-7082], for which the IFNα secretion result is reported as “not secreted”. In addition, the “intracellular IFNα staining” value (HeLa cells infected with CVB3 for 4 h, immunostaining) is on record as “greater intracellular IFNα staining”.

In the case of `N#CC(=C(/N)Sc1ccccc1N)/C(C#N)=C(\N)Sc1ccccc1N` [Compound U0126], the IFNα secretion entry is recorded as “secreted”.
